From patent US12365685B2, “Substituted fused aromatic ring derivative, composition and use thereof” (Shenzhen TargetRx, Inc., priority 2019, dated 2025) come the findings set out here.

In experiment [1] the target is Ret wt (Homo sapiens (Human), UniProt P07949). In words: Inhibition of kinase, Ret wt (HTRF KinEASE-TK). It is filed as biochemical. As to the method:
(§1) Ret wt (Carna, Cat. No. 08-159-10 ug), RET (V804M), Active (Signalchem, Cat. No. R02-12GG), HTRF KinEASE-TK kit (Cisbio, Cat. No. 62TK0PEC), CEP-32496 (MCE, Cat. No. HY-15200), ATP (Sigma, Cat. No. A7699), DMSO (Sigma, Cat. No. D8418-1L), DTT (Sigma, Cat. No. D0632), MgCl2 (Sigma, Cat. No. M1028), 384-well plate (Labcyte, Cat. No. P-05525-BC).
(§2) Formulation of compound: The test compounds were dissolved in DMSO to obtain 10 mM stock solutions, which were then serially diluted 3-fold in DMSO to obtain 10 concentrations. At the time of addition, the compound was further diluted 10-fold with buffer.
(§3) In 5× kinase buffer A, Ret wt or RET V804M kinase was mixed with different concentrations of compounds prepared by pre-dilution for 10 minutes. Each concentration was tested in duplicate. The corresponding substrate and ATP were added, and reaction was performed at room temperature for 20 minutes (negative and positive controls were provided: the negative control was a blank control, and the positive control was CEP-32496). After completion of the reaction, detection reagents (reagents in the HTRF KinEASE-TK kit) were added. After incubating for 30 minutes at room temperature, enzyme activity in the presence of various concentrations of the compounds of the present disclosure was determined by Envision microplate reader, and inhibitory activity of different concentrations of the compounds on enzyme activity was calculated. The inhibitory activity of different concentrations of the compounds on enzyme activity was fitted by Graphpad 5.0 software, and the IC50 value was calculated, wherein A indicates IC50 10 nM, B indicates 10 nM<IC50≤50 nM, C indicates 50 nM<IC50≤100 nM, and D indicates IC50>100 nM.

The target of experiment [2] is RET V804M (Homo sapiens (Human), UniProt P07949, V804M). The experiment in a line: Inhibition of kinase, RET V804M (HTRF KinEASE-TK). The format is biochemical. Conditions: reaction 20 minutes at room temperature. As to the method: as §1, §2, §3
Chain of RET V804M (P07949 29-1114 V804M): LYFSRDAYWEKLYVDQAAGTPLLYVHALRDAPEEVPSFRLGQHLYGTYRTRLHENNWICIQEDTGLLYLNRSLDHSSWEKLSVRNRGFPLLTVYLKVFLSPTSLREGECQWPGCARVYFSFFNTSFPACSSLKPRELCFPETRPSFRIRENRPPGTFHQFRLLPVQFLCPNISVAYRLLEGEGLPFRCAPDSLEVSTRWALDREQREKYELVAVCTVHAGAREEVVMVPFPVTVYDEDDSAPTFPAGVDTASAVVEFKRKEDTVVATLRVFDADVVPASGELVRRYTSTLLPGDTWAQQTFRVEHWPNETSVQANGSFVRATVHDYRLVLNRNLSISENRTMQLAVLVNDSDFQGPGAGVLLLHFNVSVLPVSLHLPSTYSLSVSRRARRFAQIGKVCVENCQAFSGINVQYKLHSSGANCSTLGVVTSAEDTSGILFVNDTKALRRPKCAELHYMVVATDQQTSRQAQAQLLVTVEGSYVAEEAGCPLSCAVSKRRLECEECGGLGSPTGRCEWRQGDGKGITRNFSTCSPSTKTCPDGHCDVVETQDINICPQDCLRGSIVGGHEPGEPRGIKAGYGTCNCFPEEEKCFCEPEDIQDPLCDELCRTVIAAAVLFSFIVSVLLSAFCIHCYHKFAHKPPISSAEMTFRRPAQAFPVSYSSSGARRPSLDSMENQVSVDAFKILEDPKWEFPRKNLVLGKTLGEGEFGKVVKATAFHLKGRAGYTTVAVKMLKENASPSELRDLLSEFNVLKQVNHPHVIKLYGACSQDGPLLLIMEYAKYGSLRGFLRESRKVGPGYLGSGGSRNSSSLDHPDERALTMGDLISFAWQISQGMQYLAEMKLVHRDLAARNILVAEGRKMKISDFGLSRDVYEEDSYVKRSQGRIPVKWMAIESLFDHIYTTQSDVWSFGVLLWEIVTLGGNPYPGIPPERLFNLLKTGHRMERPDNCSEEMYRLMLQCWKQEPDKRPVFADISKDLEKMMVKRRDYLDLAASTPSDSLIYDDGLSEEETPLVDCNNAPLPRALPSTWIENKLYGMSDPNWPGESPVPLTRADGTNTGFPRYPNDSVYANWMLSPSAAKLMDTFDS
Experiment [3] deals with Ba/F3 parental. The experiment in a line: Cytotoxicity assay, Ba/F3 parental (CellTiter-Glo). The format is cell-based. The note with it: Mus musculus, BaF3; 72 hrs, CTG. The source says:
[Worded in the source for another cell line; this cell line is reported under the same test.] (§4) Inhibitory effect of example compounds on the activity of Ba/F3 KIF5B-RET and Ba/F3 FLT3-ITD cells was detected.
(§5) Materials and reagents: fetal bovine serum (FBS) (GIBCO, Cat. No. 10099141), CellTiter-Glo® Luminescent Cell Viability Assay (Promega, Cat #G7572), 96-well clear flat-bottom black-wall plate (Corning®, Cat #3603).
(§6) • 1. Cells in the logarithmic growth phase were harvested and counted with a […]. Cell viability was detected by a trypan blue exclusion method, ensuring that cell viability was 90% or more; • 2. The cell concentration was adjusted to 3000 cells/well; 90 μl of cell suspension was added to each well of the 96-well plate; • 3. The cells in the 96-well plate were incubated overnight under the condition of 37° C., 5% CO2, and 95% humidity. Dilution and Addition of Compound: • 1. 10-fold compound solutions were formulated by 3.16-fold serial dilution starting from a concentration of 10 μM, resulting in 9 concentrations. 10 μL of the compound solutions were added in each well of the 96-well plate seeded with cells in triplicate for each compound concentration; • 2. The cells in the 96-well plate added with compounds were further incubated under the condition of 37° C., 5% CO2, and 95% humidity for 72 hrs, and then CTG analysis was carried out. Plate Reading at the End: • 1. CTG reagent was thawed, and the cell plate was equilibrated at room temperature for 30 minutes; • 2. An equal volume ([…]) of CTG solution was added to each well; • 3. The cell plate was shaken on an orbital shaker for 5 minutes to lyse the cells; • 4. The cell plate was placed at RT for 20 minutes to stabilize the luminescence signal; • 5. Luminescence value was read. Data Processing
(§7) Data were analyzed by GraphPad Prism 5.0 software, and fitted by nonlinear S-curve regression to obtain a dose-response curve, from which IC50 values were calculated, wherein A indicates IC50≤10 nM, B indicates 10 nM<IC50≤50 nM, C indicates 50 nM<IC50≤100 nM, and D indicates IC50>100 nM. cell survival (%)=(Lumtest compound−Lumculture medium control)/(Lumcell control−Lumculture medium control)×100%.

Experiment [4] relates to Ba/F3 KIF5B-RET cells. In words: Cytotoxicity assay, Ba/F3 KIF5B-RET (CellTiter-Glo). The note with it: Mus musculus, BaF3; 72 hrs, CTG. The format is cell-based.
Source text: as §4, §5, §6, §7

For experiment [5], the system named is Ba/F3 FLT3-ITD cells. In words: Cytotoxicity assay, Ba/F3 FLT3-ITD (CellTiter-Glo). It is filed as cell-based. The note with it: 72 hrs, CTG.
Source text: as §4, §5, §6, §7

The subject of experiment [6] is Ba/F3 KIF5B-RET^V804M. In words: Cytotoxicity assay, Ba/F3 KIF5B-RET V804M (CellTiter-Glo). It is filed as cell-based. Conditions: Mus musculus, BaF3; 72 hrs, CTG.
Source text: [Worded in the source for another variant; this variant is reported under the same test.] as §4, §5, §6, §7

Experiment [7] concerns Ba/F3 FLT3-ITD^D835Y. In words: Cytotoxicity assay, Ba/F3 FLT3-ITD D835Y (CellTiter-Glo). The format is cell-based. Conditions: Mus musculus, BaF3; 72 hrs, CTG.
Source text: [Worded in the source for another variant; this variant is reported under the same test.] as §4, §5, §6, §7

In experiment [8] the test system is Ba/F3 FLT3-ITD^F691L. In words: Cytotoxicity assay, Ba/F3 FLT3-ITD F691L (CellTiter-Glo). It is filed as cell-based. Conditions: Mus musculus, BaF3; 72 hrs, CTG.
The mark [9] stands for this setting: HTRF KinEASE-TK, reaction 20 minutes at room temperature, read-out: Ret wt IC50.

Like-named read-outs stand apart in the source and are kept apart here. Bounds are passed on as bounds.

Chain of Ret wt (P07949 29-1114): as the sequence (P07949 29-1114 V804M) above, with M776V counted along it

Take `Cn1cc(-c2cnn3c(-c4ccc(NC(=O)Nc5cc(C(F)(F)F)ccc5F)cc4)cnc3c2)cn1` [Compound T-1, 1-(2-fluoro-5-(trifluoromethyl)phenyl)-3-(4-(7-(1-methyl-1H-pyrazol-4-yl)imidazo[1,2-b]pyridazin-3-yl)phenyl)urea]: the IC50 is above 100 nM in experiment [1] (setting [9]); 75.8 nM in experiment [2]; 1090 nM in experiment [3]; 534 nM in experiment [4]; 2.32 nM in experiment [5].

Turning to `Cn1cc(-c2cnn3c(-c4ccc(CC(=O)Nc5cc(C(C)(C)C(F)(F)F)on5)cc4)cnc3c2)cn1` [Compound T-2, 2-(4-(7-(1-methyl-1H-pyrazol-4-yl)imidazo[1,2-b]pyridazin-3-yl)phenyl)-N-(5-(1,1,1-trifluoro-2-methylpropan-2-yl)isoxazol-3-yl)acetamide], the half-maximal inhibitory concentration (IC50) in experiment [1] (setting [9]) was determined as 0.18 nM; in experiment [2], 0.4 nM; in experiment [3] it was 3270 nM; in experiment [4] it was 4.91 nM; in experiment [6], 17.9 nM; in experiment [5] it was 0.79 nM. For the same molecule, the values for the IC50 in experiment [7] and in experiment [8] were 1.22 nM and 1.43 nM, respectively.

Take `Cn1cc(-c2cc3ncc(-c4ccc(CC(=O)Nc5cc(C(C)(C)C(F)(F)F)on5)cn4)n3cn2)cn1` [Compound T-3, 2-(6-(7-(1-methyl-1H-pyrazol-4-yl)imidazo[1,2-c]pyrimidin-3-yl)pyridin-3-yl)-N-(5-(1,1,1-trifluoro-2-methylpropan-2-yl)isoxazol-3-yl)acetamide]: the IC50 in experiment [1] (setting [9]) worked out at 0.13 nM; in experiment [2] it was 0.21 nM; in experiment [3] it was 8070 nM; in experiment [4] it was 51.2 nM; in experiment [6], 125 nM; in experiment [5], 0.2 nM. Further, the IC50 came to 9.08 nM in experiment [7] and 13.5 nM in experiment [8].

Take `Cn1cc(-c2cc3ncc(-c4ccc(CC(=O)Nc5cc(C(C)(C)C(F)(F)F)on5)cc4)n3cn2)cn1` [Compound T-4, 2-(4-(7-(1-methyl-1H-pyrazol-4-yl)imidazo[1,2-c]pyrimidin-3-yl)phenyl)-N-(5-(1,1,1-trifluoro-2-methylpropan-2-yl)isoxazol-3-yl)acetamide]: the IC50 in experiment [1] (setting [9]) amounted to 0.16 nM; in experiment [2], 0.28 nM; in experiment [4] it was 7.17 nM; in experiment [5] it was 0.49 nM.

Take `Cn1cc(Nc2nccn3c(-c4ccc(CC(=O)Nc5cc(C(C)(C)C(F)(F)F)on5)cc4)cnc23)cn1` [Compound T-5, 2-(4-(8-((1-methyl-1H-pyrazol-4-yl)amino)imidazo[1,2-a]pyrazin-3-yl)phenyl)-N-(5-(1,1,1-trifluoro-2-methylpropan-2-yl)isoxazol-3-yl)acetamide]: the IC50 was determined as 0.25 nM in experiment [1] (setting [9]); 0.8 nM in experiment [2]; 2270 nM in experiment [3]; 2.48 nM in experiment [4]; 5.43 nM in experiment [6]; 0.1 nM in experiment [5]. Also, the concentration for half-maximal inhibition (IC50) in experiment [7] and in experiment [8] was 1.43 nM in each case.

For `Cn1cc(Nc2ccnn3c(-c4ccc(CC(=O)Nc5cc(C(C)(C)C(F)(F)F)on5)cc4)cnc23)cn1` [Compound T-6, 2-(4-(8-((1-methyl-1H-pyrazol-4-yl)amino)imidazo[1,2-b]pyridazin-3-yl)phenyl)-N-(5-(1,1,1-trifluoro-2-methylpropan-2-yl)isoxazol-3-yl)acetamide], the concentration for half-maximal inhibition (IC50) in experiment [1] (setting [9]) came out at 0.45 nM; in experiment [2] it was 1.04 nM; in experiment [3], 2180 nM; in experiment [4], 6.2 nM; in experiment [6], 20.9 nM; in experiment [5] it was 1.05 nM. The half-maximal inhibitory concentration (IC50) in experiment [7] stood at 2.38 nM; in experiment [8], 1.24 nM.

Turning to `Cn1cc(-c2cnn3c(-c4ccc(CC(=O)Nc5cc(C(C)(C)C(F)(F)F)on5)c(F)c4)cnc3c2)cn1` [Compound T-7, 2-(2-fluoro-4-(7-(1-methyl-1H-pyrazol-4-yl)imidazo[1,2-b]pyridazin-3-yl)phenyl)-N-(5-(1,1,1-trifluoro-2-methylpropan-2-yl)isoxazol-3-yl)acetamide], the IC50 in experiment [1] (setting [9]) is 0.15 nM; in experiment [2] it was 0.2 nM; in experiment [3], 1820 nM; in experiment [4], 2.3 nM; in experiment [6], 10.8 nM; in experiment [5], 0.19 nM. The IC50 in experiment [7] and in experiment [8] was 1.15 nM throughout.

Take `Cn1cc(-c2cc3ncc(-c4ccc(CC(=O)Nc5cc(C(C)(C)C(F)(F)F)on5)c(F)c4)n3cn2)cn1` [Compound T-8, 2-(2-fluoro-4-(7-(1-methyl-1H-pyrazol-4-yl)imidazo[1,2-c]pyrimidin-3-yl)phenyl)-N-(5-(1,1,1-trifluoro-2-methylpropan-2-yl)isoxazol-3-yl)acetamide]: the half-maximal inhibitory concentration (IC50) in experiment [1] (setting [9]) is 0.1 nM; in experiment [1] (read-out: IC50 against Ret wt) it was below 0.2 nM; in experiment [2], 0.35 nM; in experiment [4], 15.4 nM.

As for `Cn1cc(-c2cnn3c(-c4ccc(CC(=O)Nc5cc(C(C)(C)C(F)(F)F)on5)cn4)cnc3c2)cn1` [Compound T-9, 2-(6-(7-(1-methyl-1H-pyrazol-4-yl)imidazo[1,2-b]pyridazin-3-yl)pyridin-3-yl)-N-(5-(1,1,1-trifluoro-2-methylpropan-2-yl)isoxazol-3-yl)acetamide], the IC50 in experiment [1] (setting [9]) is 0.24 nM; in experiment [2], 0.48 nM; in experiment [3] it was above 10000 nM; in experiment [4] it was 60.8 nM; in experiment [6] it was 559 nM; in experiment [5] it was 0.51 nM. Also, the values for the IC50 in experiment [7] and in experiment [8] were 10.6 nM and 15.7 nM, respectively.

For the molecule `Cn1cc(-c2cnc3c(-c4ccc(CC(=O)Nc5cc(C(C)(C)C(F)(F)F)on5)cc4)cnn3c2)cn1` [Compound T-10, 2-(4-(6-(1-methyl-1H-pyrazol-4-yl)pyrazolo[1,5-a]pyrimidin-3-yl)phenyl)-N-(5-(1,1,1-trifluoro-2-methylpropan-2-yl)isoxazol-3-yl)acetamide], the IC50 in experiment [1] (setting [9]) was 0.1 nM; in experiment [2] it was 0.23 nM; in experiment [3], 930 nM; in experiment [4], 9.98 nM; in experiment [6], 8.15 nM; in experiment [5] it was below 0.1 nM. The IC50 in experiment [7] is 1.83 nM; in experiment [8], 1.02 nM.

Turning to `Cn1cc(-c2cn3ncc(-c4ccc(CC(=O)Nc5cc(C(C)(C)C(F)(F)F)on5)cc4)c3cn2)cn1` [Compound T-12, 2-(4-(6-(1-methyl-1H-pyrazol-4-yl)pyrazolo[1,5-a]pyrazin-3-yl)phenyl)-N-(5-(1,1,1-trifluoro-2-methylpropan-2-yl)isoxazol-3-yl)acetamide], the IC50 is 0.31 nM in experiment [1] (setting [9]), 1.12 nM in experiment [2] and 9.98 nM in experiment [4].
